Consider three compounds from ChEMBL document CHEMBL6115029, “Discovery of Daraxonrasib (RMC-6236), a Potent and Orally Bioavailable RAS(ON) Multi-selective, Noncovalent Tri-complex Inhibitor for the Treatment of Patients with Multiple RAS-Addicted Cancers” (J Med Chem, 2025).

≈ marks a conversion by molar mass, not a printed value.

The nature of series [1]: Inhibition of 6His-tagged wildtype NRAS (1 to 169 residues)/GST-tagged GMPPNP-bound BRAF RBD (155 to 229 reisudes)/Cyclophilin A (unknown origin) tri-complex protein-protein interaction incubated for 3 hrs by TR-FERT based disruption assay. Also on record: species or system Homo sapiens.
Series [2] can be described thus: Inhibition of 6His-tagged KRAS G12D mutant(1 to 169 residues)/GST-tagged GMPPNP-bound BRAF RBD (155 to 229 reisudes)/Cyclophilin A (unknown origin) tri-complex protein-protein interaction incubated for 3 hrs by TR-FERT based disruption assay. Further details: species or system Homo sapiens.
Series [3] in a line: Binding affinity to Cyclophilin A/Avi-tagged KRAS G12V mutant (1 to 169 residues) (unknown origin) assessed as dissociation constant by SPR analysis. Further details: species or system Homo sapiens. Background: In SPR one partner is held on a chip, and binding of the other changes the refractive index at the surface.
Series [4] has as its system CAPAN-1. In words: Cytotoxicity against human CAPAN-1 cells harboring KRAS G12V mutant cultured as 2D cells assessed as reduction in cell viability incubated for 120 hrs by CellTiter-Glo luminescence assay. Type of series: functional, cell-based. Particulars: CAPAN-1, 120 h. (In ATP-based viability assays light output follows the ATP content of the culture.)
Series [5] has as its system NCI-H358. The series can be described thus: Cytotoxicity against human NCI-H358 cells harboring KRAS G12C mutant cultured as 2D cells assessed as reduction in cell viability incubated for 120 hrs by CellTiter-Glo luminescence assay. Type of series: functional, cell-based. Particulars: NCI-H358, 120 h.
Series [6] can be described thus: Inhibition of 6His-tagged KRAS G12V mutant(1 to 169 residues)/GST-tagged GMPPNP-bound BRAF RBD (155 to 229 reisudes)/Cyclophilin A (unknown origin) tri-complex protein-protein interaction incubated for 3 hrs by TR-FERT based disruption assay. Also on record: species or system Homo sapiens.
In series [7] the test system is ASPC1. In words: Cytotoxicity against human ASPC1 cells harboring KRAS G12D mutant cultured as 2D cells assessed as reduction in cell viability incubated for 120 hrs by CellTiter-Glo luminescence assay. Type of series: functional, cell-based. Particulars: ASPC1, 120 h.
Series [8] concerns the target Peptidyl-prolyl cis-trans isomerase A (Homo sapiens, UniProt P62937). In words: Binding affinity to Avi-tagged Cyclophilin A (unknown origin) assessed as dissociation constant by SPR analysis.
Series [9] is described as follows: Inhibition of 6His-tagged KRAS G61H mutant(1 to 169 residues)/GST-tagged GMPPNP-bound BRAF RBD (155 to 229 reisudes)/Cyclophilin A (unknown origin) tri-complex protein-protein interaction incubated for 3 hrs by TR-FERT based disruption assay. Also on record: species or system Homo sapiens.
The nature of series [10]: Binding affinity to Cyclophilin A/Avi-tagged KRAS G12C mutant (1 to 169 residues) (unknown origin) assessed as dissociation constant by SPR analysis. Also on record: species or system Homo sapiens.
Series [11] is described as follows: Binding affinity to Cyclophilin A/Avi-tagged KRAS G12D mutant (1 to 169 residues) (unknown origin) assessed as dissociation constant by SPR analysis. Also on record: species or system Homo sapiens.
A short description of series [12]: Inhibition of 6His-tagged NRAS G61K mutant(1 to 169 residues)/GST-tagged GMPPNP-bound BRAF RBD (155 to 229 reisudes)/Cyclophilin A (unknown origin) tri-complex protein-protein interaction incubated for 3 hrs by TR-FERT based disruption assay. Further details: species or system Homo sapiens.
Series [13] is described as follows: Inhibition of 6His-tagged KRAS G12R mutant(1 to 169 residues)/GST-tagged GMPPNP-bound BRAF RBD (155 to 229 reisudes)/Cyclophilin A (unknown origin) tri-complex protein-protein interaction incubated for 3 hrs by TR-FERT based disruption assay. Further details: species or system Homo sapiens.
The test system of series [14] is NCI-H1975. In words: Cytotoxicity against human NCI-H1975 cells harboring wildtype KRAS cultured as 2D cells assessed as reduction in cell viability incubated for 120 hrs by CellTiter-Glo luminescence assay. To be noted: NCI-H1975, 120 h. Type of series: functional, cell-based.
Series [15] in a line: Inhibition of 6His-tagged wildtype KRAS (1 to 169 residues)/GST-tagged GMPPNP-bound BRAF RBD (155 to 229 reisudes)/Cyclophilin A (unknown origin) tri-complex protein-protein interaction incubated for 3 hrs by TR-FERT based disruption assay. Further details: species or system Homo sapiens.
A short description of series [16]: Inhibition of 6His-tagged wildtype HRAS (1 to 169 residues)/GST-tagged GMPPNP-bound BRAF RBD (155 to 229 reisudes)/Cyclophilin A (unknown origin) tri-complex protein-protein interaction incubated for 3 hrs by TR-FERT based disruption assay. Further details: species or system Homo sapiens.
Series [17] is described as follows: Inhibition of 6His-tagged KRAS G12C mutant(1 to 169 residues)/GST-tagged GMPPNP-bound BRAF RBD (155 to 229 reisudes)/Cyclophilin A (unknown origin) tri-complex protein-protein interaction incubated for 3 hrs by TR-FERT based disruption assay. Further details: species or system Homo sapiens.
Series [18] in a line: Half-life in female BALB/c mouse at 1 mg/kg, iv measured after 24 hrs by LC-MS/MS analysis. Type of series: ADME, organism-based. Particulars: in vivo.
Series [19] in a line: Clearance in female BALB/c mouse at 1 mg/kg, iv measured after 24 hrs by LC-MS/MS analysis. Type of series: ADME, organism-based. To be noted: in vivo.
The nature of series [20]: Efflux ratio of apparent permeability in human Caco-2 cells at 5 uM incubated for 2 hrs by LC-MS/MS analysis. Type of series: ADME, cell-based. (Passage across Caco-2 layers is used to estimate intestinal permeability.)
Series [21] can be described thus: Kinetic solubility of compound in PBS at pH 7.4 measured after 5 hrs by UV analysis. Type of series: physicochemical. To be noted: read-out: Kinetic_solubility.
Series [22] can be described thus: Lipophilicity, logD of compound at pH 7.4 by Agilent 1290 II uPLC analysis. Type of series: physicochemical. To be noted: buffer.
A short description of series [23]: Oral bioavailability in female BALB/c mouse at 10 mg/kg measured after 24 hrs by LC-MS/MS analysis. Type of series: ADME, organism-based. To be noted: in vivo.
Series [24] is described as follows: Inhibition of ERK1/2 phosphorylation in human CAPAN-1 cells harboring KRAS G12V mutant incubated for 4 hrs by AlphaLISA assay. Type of series: cell-based. To be noted: CAPAN-1, 4 h.
A short description of series [25]: In vivo inhibition of MAPK signaling pathway in female BALB/c nude mouse xenografted with human NCI-H441 cells harboring wildtype KRAS/KRAS G12V mutant assessed as decrease in DUSP6 mRNA expression in tumor at 200 mg/kg, po administered as single dose and measured after 2 hrs by qPCR analysis relative to control. Type of series: functional.
A short description of series [26]: Inhibition of ERK1/2 phosphorylation in human NCI-H358 cells harboring KRAS G12C mutant incubated for 4 hrs by AlphaLISA assay. Particulars: NCI-H358, 4 h. Type of series: cell-based.
Series [27] has as its system A-375. In words: Cytotoxicity against human A-375 cells assessed as reduction in cell viability incubated for 120 hrs by CellTiter-Glo luminescence assay. Type of series: functional, cell-based. To be noted: A-375, 120 h.
A short description of series [28]: Apparent permeability across apical to basolateral side in human Caco-2 cells at 5 uM incubated for 2 hrs by LC-MS/MS analysis. Type of series: ADME, cell-based.
Series [29] in a line: Inhibition of ERK1/2 phosphorylation in human ASPC1 cells harboring KRAS G12D mutant incubated for 4 hrs by AlphaLISA assay. Type of series: cell-based. Particulars: ASPC1, 4 h.
Series [30] can be described thus: Metabolic stability in mouse liver microsomes assessed as half-life at 2 uM measured upto 60 mins in presence of NADPH by LC-MS/MS analysis. Type of series: ADME, Microsome.
Series [31] can be described thus: In vivo inhibition of MAPK signaling pathway in female BALB/c nude mouse xenografted with human NCI-H441 cells harboring wildtype KRAS/KRAS G12V mutant assessed as decrease in DUSP6 mRNA expression in tumor at 100 mg/kg, po administered as single dose and measured after 2 hrs by qPCR analysis relative to control. Type of series: functional.
Series [32] can be described thus: Kinetic solubility of compound in PBS at pH 5.0 measured after 5 hrs by UV analysis. Type of series: physicochemical. Particulars: read-out: Kinetic_solubility.

Sequence of Peptidyl-prolyl cis-trans isomerase A (P62937 whole entry, the tested form may be a part): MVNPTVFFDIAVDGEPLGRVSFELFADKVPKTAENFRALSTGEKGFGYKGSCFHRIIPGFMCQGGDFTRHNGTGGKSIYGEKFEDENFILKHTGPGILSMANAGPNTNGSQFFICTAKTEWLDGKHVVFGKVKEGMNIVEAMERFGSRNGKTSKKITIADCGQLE

A word on the IC50: it is the midpoint of a concentration-inhibition curve. One may read the Kd as the constant that tells how readily two partners part at equilibrium. As usually defined, the EC50 is the concentration that produces a half-maximal response. For `CCn1c(-c2cccnc2[C@H](C)OC)c2c3cc(ccc31)-c1cccc(c1)C[C@H](NC(=O)[C@H](C(C)C)N(C)C(=O)[C@H]1CCN(C(C)=O)C1)C(=O)N1CCC[C@H](N1)C(=O)OCC(C)(C)C2`, the 50% inhibitory concentration (IC50) in series [1] amounted to 3.2 µM; in series [2], 12.9 µM; in series [6], 4.4 µM; in series [9], 1.3 µM; in series [12], 3.5 µM; in series [13], 8.4 µM. Moreover, the IC50 turned out to be 5.1 µM in series [15], 3.5 µM in series [16] and 1.6 µM in series [17]. The Kd in [3] was determined as 5.83 µM; in series [8], 0.897 µM; in [10], 2.05 µM; in series [11], 3.55 µM. The EC50 in series [4] was 0.948 µM; in series [5] it was 1.09 µM; in [7] it was 1.86 µM; in series [14], 1.14 µM.
One may read the half-life as how long it takes for the measured level to halve. A word on the clearance: it is the volume of plasma or blood freed of the substance per unit of time. In general, efflux ratio refers to a quotient of directional permeabilities that is used to spot active efflux. The term logD denotes lipophilicity at a set pH, counting ionised and neutral species. In general, bioavailability refers to dose-corrected exposure relative to a reference, in per cent. Read a low bioavailability as little systemic uptake. One may read the inhibition in vivo as the drop in the measured response relative to a control, in per cent. A word on the Papp A→B: it is the apparent permeability from the apical to the basolateral side of a cell layer. Turning to `CCn1c(-c2cccnc2[C@H](C)OC)c2c3cc(ccc31)-c1csc(n1)C[C@H](NC(=O)[C@H](C(C)C)N(C)C(=O)N1CC(OC)C1)C(=O)N1CCC[C@H](N1)C(=O)OCC(C)(C)C2`, the half-life in series [18] was 90 min. The IC50 in series [2] turned out to be 1.16 µM; in series [7] it was 0.076 µM; in series [15], 0.2 µM; in series [17], 0.078 µM. Further, the EC50 in series [4] is 0.016 µM; in series [5] it was 0.007 µM; in series [24] it was 0.003 µM; in series [26], 0.005 µM; in series [27], more than 10 µM; in [29], 0.061 µM. Besides, in [14], the concentration giving a half-maximal response (EC50) came to 0.022 µM. In addition, the clearance in series [19] was 33.3 mL/min/kg. Besides, the efflux ratio at 2 h, 5 µM in series [20] was found to be 9.6. In addition, in [21], the solubility kinetic at 5 h stood at 12 µM (≈ 10.3 µg/mL). The compound further showed a logD in [22] of 4.8. The same compound yielded a bioavailability in series [23] of 17%. The inhibition in vivo at 200 mg/kg in series [25] was found to be 94%. Also, the dissociation constant Kd in series [8] was determined as 0.283 µM. Also, in [28], the Papp A→B at 2 h, 5 µM is 0.6 ×10⁻⁶ cm/s. Also, in series [30], the half-life at 2 µM stood at 19 min. Besides, the inhibition in vivo at 100 mg/kg in [31] is 87%.
In turn, `CCn1c(-c2cccnc2[C@H](C)OC)c2c3cc(ccc31)-c1csc(n1)C[C@H](NC(=O)[C@H]1C[C@@H]1C)C(=O)N1CCC[C@H](N1)C(=O)OCC(C)(C)C2` showed a half-life in [18] of 54 min. The IC50 in [2] turned out to be 0.927 µM; in [6], 0.165 µM; in series [15], 0.344 µM; in series [17], 0.117 µM. Besides, the EC50 came out at 0.129 µM in [4]; 0.083 µM in series [5]; 0.025 µM in series [24]; 0.236 µM in series [7]; 0.068 µM in series [26]; 8.37 µM in series [27]. Further, the EC50 in series [29] came to 0.818 µM; in [14], 0.069 µM. Moreover, the clearance in [19] was 10 mL/min/kg. Moreover, in series [20], the efflux ratio at 2 h, 5 µM was 1. The solubility kinetic at 5 h in [21] was 3 µM (≈ 2.14 µg/mL); in series [32], less than 2 µM. The same compound displayed a logD in series [22] of 4.7. This compound returned a bioavailability in [23] of 75%. Further, the Kd in series [8] was determined as 1.76 µM. In [28], the Papp A→B at 2 h, 5 µM was found to be 10.7 ×10⁻⁶ cm/s. Also, the half-life at 2 µM in series [30] was found to be 53 min.
